≈ marks a conversion by molar mass, not a printed value.
Columns and labels:
S. aureus ATCC29213 = experiment: MIC against MSSA; type: cell-based, Staphylococcus aureus; conditions: Staphylococcus aureus; MSSA ATCC 29213; Table 10, unit inferred; read-out: Activity (MIC) against S. aureus
MRSA (NRS70, NRS119) = experiment: MIC against MRSA strains; type: cell-based, Staphylococcus aureus; conditions: Staphylococcus aureus, NRS70 strain; Table 3 (SAR^2 and SAR^3); read-out: MIC MRSA
E. faecium NCTC7171 = experiment: MIC against E. faecium; type: cell-based, Enterococcus faecium; conditions: Enterococcus faecium, NCTC7171; E. faecium NCTC 7171; Table 10, unit inferred; read-out: Activity (MIC) against E. faecium
C. difficile = experiment: MIC by broth microdilution against C. difficile strains; type: cell-based, Clostridioides difficile; conditions: for MIC: Clostridioides difficile, ATCC43255, ATCC 43255, ribotype 087, Table 3 (SAR^2 and SAR^3), read-out: MIC C. difficile; for Selectivity: MIC MRSA/MIC C. difficile, Table 3
HeLa cells = experiment: XTT cytotoxicity assay with HeLa cells; type: cell-based; conditions: Homo sapiens, Table 6
Procedure: XTT assay. Cytotoxicity assays were performed in triplicate against HeLa cells (ATCC CCL-2). The IC50 values were calculated by nonlinear regression with GraphPad Prism 5 (San Diego, Calif.).
XTT assay. XTT assays were performed with HeLa cells (ATCC CCL-2) in triplicate, as previously described (Lancet 2008, 371, 1486). IC50 values were determined by nonlinear regression using GraphPad Prism 5 (San Diego, Calif.).

| SMILES | MIC (S. aureus ATCC29213) [µg/mL] | MIC (MRSA (NRS70, NRS119)) [µg/mL] | MIC (E. faecium NCTC7171) [µg/mL] | MIC (C. difficile) [µg/mL] | Selectivity (C. difficile) | IC50 (HeLa cells) [µg/mL] |
| --- | --- | --- | --- | --- | --- | --- |
| O=C(Nc1ncco1)c1ccnc(-c2ccc(F)c(Cl)c2)c1 [Compound 40, 2-(3-Chloro-4-fluorophenyl)-N-(oxazol-2-yl)isonicotinamide] | 0.5 (≈ 1.57 µM) | 0.25 (≈ 0.787 µM) | 1 (≈ 3.15 µM) | 0.25 (≈ 0.787 µM) | 1 | – |
| O=C(Nc1ncco1)c1ccnc(-c2cc(Cl)cc(Cl)c2)c1 [Compound 41, 2-(3,5-Dichlorophenyl)-N-(oxazol-2-yl)isonicotinamide] | 0.06 (≈ 0.18 µM) | 0.0625 (≈ 0.187 µM) | 0.06 (≈ 0.18 µM) | 0.0625 (≈ 0.187 µM) | 1 | – |
| O=C(Nc1ncco1)c1ccnc(-c2cc(F)cc(Cl)c2)c1 [Compound 43, 2-(3-Chloro-5-fluorophenyl)-N-(oxazol-2-yl)isonicotinamide] | 0.25 (≈ 0.787 µM) | 0.0625 (≈ 0.197 µM) | 0.5 (≈ 1.57 µM) | 0.12 (≈ 0.378 µM) | 0.5 | – |
| O=C(Nc1ncco1)c1ccnc(-c2ccc(C(F)(F)F)cc2)c1 [Compound 44, N-(Oxazol-2-yl)-2-(4-(trifluoromethyl)phenyl)isonicotinamide] | 0.25 (≈ 0.75 µM) | 1 (≈ 3 µM) | 1 (≈ 3 µM) | 0.25 (≈ 0.75 µM) | 4 | – |
| O=C(Nc1ncco1)c1ccnc(-c2cccc(C(F)(F)F)c2)c1 [Compound 45, N-(Oxazol-2-yl)-2-(3-(trifluoromethyl)phenyl)isonicotinamide] | 0.25 (≈ 0.75 µM) | 0.25 (≈ 0.75 µM) | 1 (≈ 3 µM) | 0.25 (≈ 0.75 µM) | 1 | – |
| O=C(Nc1ncco1)c1ccnc(-c2ccc(OC(F)(F)F)cc2)c1 [Compound 46, N-(Oxazol-2-yl)-2-(4-(trifluoromethoxy)phenyl)isonicotinamide] | 0.5 (≈ 1.43 µM) | 1 (≈ 2.86 µM) | 2 (≈ 5.73 µM) | 0.125 (≈ 0.358 µM) | 8 | – |
| O=C(Nc1ncco1)c1ccnc(-c2cccc(OC(F)(F)F)c2)c1 [Compound 47, N-(Oxazol-2-yl)-2-(3-(trifluoromethoxy)phenyl)isonicotinamide] | 0.25 (≈ 0.716 µM) | 0.0625 (≈ 0.179 µM) | 1 (≈ 2.86 µM) | 0.25 (≈ 0.716 µM) | 0.25 | – |
| O=C(Nc1ncco1)c1ccnc(-c2ccc(Br)cc2)c1 [Compound 48, 2-(4-Bromophenyl)-N-(oxazol-2-yl)isonicotinamide] | 0.5 (≈ 1.45 µM) | 0.25 (≈ 0.726 µM) | 1 (≈ 2.91 µM) | 0.5 (≈ 1.45 µM) | 0.5 | – |
| O=C(Nc1ncco1)c1ccnc(OCC(F)(F)F)c1 [Compound 64, N-(Oxazol-2-yl)-2-(2,2,2-trifluoroethoxy)isonicotinamide] | 8 (≈ 27.9 µM) | 4 (≈ 13.9 µM) | 8 (≈ 27.9 µM) | 2 (≈ 6.96 µM) | 2 | – |
| O=C(Nc1ncco1)c1ccnc(-c2ccc(Cl)c(Cl)c2)c1F [Compound 66, 2-(3,4-Dichlorophenyl)-3-fluoro-N-(oxazol-2-yl)isonicotinamide] | 0.5 (≈ 1.42 µM) | 2 (≈ 5.68 µM) | 1 (≈ 2.84 µM) | 0.25 (≈ 0.71 µM) | 8 | – |
| O=C(Nc1ncco1)c1cc(-c2ccc(Cl)c(Cl)c2)ncc1F [Compound 70, 2-(3,4-Dichlorophenyl)-5-fluoro-N-(oxazol-2-yl)isonicotinamide] | 0.25 (≈ 0.71 µM) | 0.0625 (≈ 0.177 µM) | 0.5 (≈ 1.42 µM) | 0.125 (≈ 0.355 µM) | 0.5 | – |
| O=C(Nc1ncco1)c1cc(-c2ccc(F)cc2)ccn1 [Compound 89, 4-(4-Fluorophenyl)-N-(oxazol-2-yl)picolinamide] | ≥ 128 | 64 (≈ 226 µM) | ≥ 128 | 1 (≈ 3.53 µM) | 64 | 170 ± 2.5 (≈ 601 µM) |
| O=C(Nc1ncco1)c1cc(-c2ccc(F)c(F)c2)ccn1 [Compound 90, 4-(3,4-Difluorophenyl)-N-(oxazol-2-yl)picolinamide] | ≥ 128 | 128 (≈ 425 µM) | ≥ 128 | 0.5 (≈ 1.66 µM) | 256 | > 64 |
| O=C(Nc1ncco1)c1cc(-c2ccc(F)c(Cl)c2)ccn1 [Compound 91, 4-(3-Chloro-4-fluorophenyl)-N-(oxazol-2-yl)picolinamide] | ≥ 128 | 128 (≈ 403 µM) | ≥ 128 | 0.25 (≈ 0.787 µM) | 512 | – |
| O=C(Nc1ncco1)c1cc(-c2ccc(Cl)c(F)c2)ccn1 [Compound 92, 4-(4-Chloro-3-fluorophenyl)-N-(oxazol-2-yl)picolinamide] | ≥ 128 | 128 (≈ 403 µM) | ≥ 128 | 0.25 (≈ 0.787 µM) | 512 | > 256 |
| O=C(Nc1ncco1)c1cc(-c2cccc(F)c2)ccn1 [Compound 93, 4-(3-Fluorophenyl)-N-(oxazol-2-yl)picolinamide] | ≥ 128 | 64 (≈ 226 µM) | ≥ 128 | 0.5 (≈ 1.77 µM) | 128 | > 64 |
| O=C(Nc1ncco1)c1cc(-c2cc(F)cc(F)c2)ccn1 [Compound 94, 4-(3,5-Difluorophenyl)-N-(oxazol-2-yl)picolinamide] | ≥ 128 | 64 (≈ 212 µM) | ≥ 128 | 1 (≈ 3.32 µM) | 64 | 40.1 ± 1.6 (≈ 133 µM) |
| O=C(Nc1ncco1)c1cc(-c2ccc(C(F)(F)F)cc2)ccn1 [Compound 97, N-(Oxazol-2-yl)-4-(4-(trifluoromethyl)phenyl)picolinamide] | ≥ 128 | 128 (≈ 384 µM) | ≥ 128 | 0.25 (≈ 0.75 µM) | 512 | 135 ± 8.6 (≈ 405 µM) |
| O=C(Nc1ncco1)c1cc(-c2cccc(C(F)(F)F)c2)ccn1 [Compound 98, N-(Oxazol-2-yl)-4-(3-(trifluoromethyl)phenyl)picolinamide] | ≥ 128 | 64 (≈ 192 µM) | ≥ 128 | 0.5 (≈ 1.5 µM) | 128 | 115 ± 2.2 (≈ 344 µM) |
| O=C(Nc1ncco1)c1ccnc(Oc2ccc(Cl)c(Cl)c2)c1 [Compound 99, 2-(3,4-Dichlorophenoxy)-N-(oxazol-2-yl)isonicotinamide] | 0.12 (≈ 0.343 µM) | – | 0.5 (≈ 1.43 µM) | – | – | 37 ± 1 (≈ 106 µM) |
| O=C(Nc1ncco1)c1cc(Oc2ccc(F)c(F)c2)ccn1 [Compound 106, 4-(3,4-Difluorophenoxy)-N-(oxazol-2-yl)picolinamide] | 64 (≈ 202 µM) | – | 128 (≈ 403 µM) | – | – | 106 ± 2.1 (≈ 334 µM) |
| O=C(Nc1ncco1)c1cc(Oc2ccc(OC(F)(F)F)cc2)ccn1 [Compound 109, N-(Oxazol-2-yl)-4-(4-(trifluoromethoxy)phenoxy)picolinamide] | ≥ 128 | – | ≥ 128 | – | – | 77.4 ± 2.3 (≈ 212 µM) |
| O=C(Nc1ncco1)c1cc(Oc2ccc(SC(F)(F)F)cc2)ccn1 [Compound 110, N-(Oxazol-2-yl)-4-(4-((trifluoromethyl)thio)phenoxy)picolinamide] | ≥ 128 | – | ≥ 128 | – | – | 91.6 ± 1.3 (≈ 240 µM) |
| COC(=O)c1ccc2oc(NC(=O)c3cc(Oc4ccc(F)c(F)c4)ccn3)nc2c1 [Compound 114, Methyl 2-(4-(3,4-difluorophenoxy)picolinamido)benzo[d]oxazole-5-carboxylate] | 128 (≈ 301 µM) | – | ≥ 128 | – | – | 53.3 ± 3.6 (≈ 125 µM) |
| O=C(O)c1ccc2nc(NC(=O)c3cc(-c4ccc(OC(F)(F)F)cc4)ccn3)oc2c1 [Compound 118, 2-(4-(4-(Trifluoromethoxy)phenyl)picolinamido)benzo[d]oxazole-6-carboxylic acid] | 8 (≈ 18 µM) | – | 64 (≈ 144 µM) | – | – | 79.9 ± 6.3 (≈ 180 µM) |
| O=C(O)c1ccc2nc(NC(=O)c3cc(-c4cccc(OC(F)(F)F)c4)ccn3)oc2c1 [Compound 119, 2-(4-(3-(Trifluoromethoxy)phenyl)picolinamido)benzo[d]oxazole-6-carboxylic acid] | – | – | – | – | – | 124 ± 3.3 (≈ 279 µM) |
